Measurements published in patent US8268823B2, “Medical use of triazine derivatives” (University of Greenwich, priority 2006, dated 2012).
Where two headings read alike, the source gives them in different places. Values belong to the compound of their own block, whether it stands above or below them.

Columns and labels:
sodium channel = assay: veratrine-evoked uptake of [14C]guanidine into rat forebrain synaptosomes ([14C]guanidine flux); format: biochemical; conditions: for Hill (uptake of [14C]guanidine): slope
Description: The screening strategy is designed to select compounds with appropriate sodium channel blocking activity and low side effect liability. To this end all compounds are processed through the primary sodium channel assay (veratrine-evoked uptake of [^14C]guanidine into rat forebrain synaptosomes) and IC50 values computed from generated concentration-effect curves.
Synaptosomes (heavy and light mitochondrial fraction containing synaptosomes) were prepared by transferring the forebrain (of known wet weight) to a glass Potter vessel to which 9 volumes ice-cold 0.25M sucrose had been added and homogenising, using a teflon pestle, by 8 ‘up and down strokes’ of a Braun Potter S motor driven homogeniser set to 900 rpm. The resulting homogenate was centrifuged at 1036×g at 4° for 10 min and the supernatant collected. The remaining pellet was resuspended, as above, in fresh ice-cold 0.25M sucrose and the centrifugation step repeated. The supernatant fractions were pooled and centrifuged at 40,000×g (average) at 4° for 15 min and the resulting pellet resuspended in the appropriate assay buffer at a concentration of 20-25 mg wet weight per ml appropriate assay buffer.
Both assays were carried out using 14 ml polypropylene test tubes to which a range of concentrations of the compounds under test were added.
Compounds under test were pre-incubated for 10 min at 30° in incubation buffer (50 mM pH 7.4 HEPES (adjusted to pH 7.4 with Tris base), 130 mM choline chloride, 5.5 mM D-glucose, 0.8 mm MgSO4 and 5 mM KCl) containing 7.5 mg original wet weight of tissue and 100 μg veratrine HCl in a final volume of 0.5 ml. […] A further 2×5 ml of ice-cold wash buffer was added to each tube and the vacuum filtration step repeated. The GF/C glass fibre filters were transferred to minivials and 4 ml Picofluor^40 liquid scintillant added using a Brandel™ deposit/dispense system. Radioactivity was measured using a Beckman Liquid Scintillation Counter.
(§1) Data are presented as mean±sem of number of experiments indicated in brackets.

[1] = target: T1, DiHydroFolate Reductase (DHFR) (Rattus norvegicus, UniProt Q920D2); assay: inhibition of binding of [3H]methotrexate to rat liver homogenate supernatant; conditions: for IC50: rat liver supernatant; for inhibition at 20 µM: assay concentration 20 μM; for inhibition at 495 µM: assay concentration 495 μM
T1 construct: from tissue; host or cells: rat liver homogenate supernatant (47,500 x g)
T1 sequence (Q920D2 1-187): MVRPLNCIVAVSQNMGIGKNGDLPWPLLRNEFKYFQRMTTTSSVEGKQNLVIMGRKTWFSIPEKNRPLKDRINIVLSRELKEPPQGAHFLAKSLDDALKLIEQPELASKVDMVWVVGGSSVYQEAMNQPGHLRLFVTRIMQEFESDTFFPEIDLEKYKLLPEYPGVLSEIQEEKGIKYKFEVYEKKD
Description: All steps were carried out at 4° (or on ice). Freshly dissected rat liver was dissected into 0.25M ice-cold Sucrose and subsequently homogenised (U-turrax) in 50 mM pH 6.0 phosphate buffer (10 ml/g tissue) containing 15 mM Dithiothreitol. The resulting homogenate was centrifuged @ 47,500×g for 20 min and supernatant (filtered through cotton wool to remove fatty lumps) stored @-80° before use (Rothenberg et al).
The binding reaction was stopped by the addition of 50 μl of a charcoal suspension (consisting of charcoal, Bovine Serum Albumin and Dextran present in a weight ratio of 100:4:1 suspended in 50 mM pH 6.0 phosphate buffer. Samples were vortexed, allowed to stand for 2 minutes and charcoal was precipitated by microcentrifugation @ full speed for 5 min. Aliquots of clear supernatant were transferred to counting vials containing liquid scintillant for measurement of radioactivity using Liquid Scintillation Spectroscopy.
Percentage inhibition values were calculated by comparison to this value.
as §1

[2] = Table 3, rat forebrain synaptosomes, read-out: [14C]guanidine flux Mean (IC50: μM)
[3] = Table 8, read-out: IC50 (μM) (uptake of [14C]guanidine)
[4] = read-out: [3H]methotrexate binding Inhibition (% @ assay conc'n)
[5] = read-out: [3H]methotrexate binding Inhibition (% @ assay conc'n), assay concentration 99 μM

IC50 (sodium channel; [2]): 2290 µM | IC50 [1]: 288 µM
SMILES: Cn1nc(-c2ccccc2)c(N)nc1=N [Example 46, 5(3)-Amino-6-phenyl-2,3(2,5)-dihydro-3(5)-imino-2-methyl-1,2,4-triazine methanesulfonate]

pIC50 (uptake of [14C]guanidine) (sodium channel; Table 8): 5.20 ± 0.05 | IC50 (sodium channel; [3]): 6.31 µM
SMILES: N=c1nc(N)c(-c2cc(Cl)cc(Cl)c2Cl)nn1CCF [Example 55, 5(3)-Amino-6-(2,3,5-trichlorophenyl)-2,3(2,5)-dihydro-3(5)-imino-2-(2-fluoroethyl)-1,2,4-triazine methanesulfonate]
Hill (uptake of [14C]guanidine) (sodium channel; Table 8): 0.79

IC50 (sodium channel; [2]): 3.5 µM | [3H]methotrexate binding Inhibition (% @ assay conc'n) ([1]; assay concentration 9 μM): −4% | [3H]methotrexate binding Inhibition (% @ assay conc'n) ([1]; assay concentration 99 μM): −7%
SMILES: N=c1nc(N)c(-c2cccc(Cl)c2Cl)nn1Cc1cccc(Cl)c1 [Example 20, 5(3)-Amino-6-(2,3-dichlorophenyl)-2,3(2,5)-dihydro-3(5)-imino-2-(3-chloro)phenylmethyl-1,2,4-triazine]

pIC50 (uptake of [14C]guanidine) (sodium channel; Table 8): 4.73 ± 0.11 | IC50 (sodium channel; [3]): 18.6 µM
SMILES: CCn1nc(-c2cc(Cl)cc(Cl)c2)c(N)nc1=N [Example 54, 5(3)-Amino-6-(3,5-dichlorophenyl)-2,3(2,5)-dihydro-3(5)-imino-2-ethyl-1,2,4-triazine methanesulfonate]
Hill (uptake of [14C]guanidine) (sodium channel; Table 8): 0.76

pIC50 (uptake of [14C]guanidine) (sodium channel; Table 8): 2.90 ± 0.20 | IC50 (sodium channel; [3]): 1260 µM
SMILES: N=c1nc(N)c(-c2cc(Cl)cc(Cl)c2Cl)nn1CCC(F)(F)F [Example 56, 5(3)-Amino-6-(2,3,5-trichlorophenyl)-2,3(2,5)-dihydro-3(5)-imino-2-(3,3,3-trifluoropropyl)-1,2,4-triazine methanesulfonate]
Hill (uptake of [14C]guanidine) (sodium channel; Table 8): 0.83

pIC50 (uptake of [14C]guanidine) (sodium channel; Table 8): 4.34 ± 0.16 | IC50 (sodium channel; [3]): 45.7 µM
SMILES: Cn1nc(-c2cc(Cl)cc(Cl)c2)c(N)nc1=N [Example 53, 5(3)-Amino-6-(3,5-dichlorophenyl)-2,3(2,5)-dihydro-3(5)-imino-2-methyl-1,2,4-triazine methanesulfonate]
Hill (uptake of [14C]guanidine) (sodium channel; Table 8): 0.73

IC50 (sodium channel; [2]): 12.9 µM | IC50 [1]: > 300 µM
SMILES: CC(C)(C)OC(=O)N1CCC(Cn2nc(-c3cccc(Cl)c3Cl)c(N)nc2=N)CC1 [Example 37, 1,1-Dimethylethyl 4-[5(3)-Amino-6-(2,3-dichlorophenyl)-2,3(2,5)-dihydro-3(5)-imino-1,2,4-triazin-2-ylmethyl]piperidine-1-carboxylate or 5(3)-Amino-6-(2,3-dichlorophenyl)-2,3(2,5)-dihydro-3(5)-imino-2-(Bocpiperidin-4-yl)methyl-1,2,4-triazine]

IC50 (sodium channel; [2]): > 100 µM | inhibition at 20 µM [1, 4]: -3% | inhibition at 99 µM [1, 5]: -3%
SMILES: N=c1nc(N)c(-c2cccc(Cl)c2Cl)nn1CC(N)=O [Example 11]

IC50 (sodium channel; [2]): 20.9 µM | IC50 [1]: 95 µM
SMILES: CCn1nc(-c2cc(Cl)ccc2Cl)c(N)nc1=N [Example 49, 5(3)-Amino-6-(2,5-dichlorophenyl)-2,3(2,5)-dihydro-3(5)-imino-2-ethyl-1,2,4-triazine methanesulfonate]

IC50 (sodium channel; [2]): 28.2 µM | IC50 [1]: 251 µM
SMILES: Cn1nc(-c2cc(Cl)ccc2Cl)c(N)nc1=N [Example 48, 5(3)-Amino-6-(2,5-dichlorophenyl)-2,3(2,5)-dihydro-3(5)-imino-2-methyl-1,2,4-triazine methanesulfonate]

IC50 (sodium channel; [2]): 49 µM
SMILES: N=c1nc(N)c(-c2cccc(Cl)c2Cl)nn1Cc1ccc(CO)cc1 [Example 28, 4-{[5(3)-Amino-6-(2,3-dichlorophenyl)-2,3-dihydro-3(5)-imino-1,2,4-triazin-2-yl]methyl}phenylmethanol or 5(3)-Amino-6-(2,3-dichlorophenyl)-2,3(2,5)-dihydro-3(5)-imino-2-(4-hydroxymethyl)phenylmethyl-1,2,4-triazine]

IC50 (sodium channel; [2]): 4.6 µM
SMILES: N=c1nc(N)c(-c2cccc(Cl)c2Cl)nn1Cc1ccccc1Cl [Example 22, 5(3)-Amino-6-(2,3-dichlorophenyl)-2,3(2,5)-dihydro-3(5)-imino-2-(2-chloro)phenylmethyl-1,2,4-triazine]

pIC50 (uptake of [14C]guanidine) (sodium channel; Table 8): 5.00 ± 0.08 | IC50 (sodium channel; [3]): 10 µM
SMILES: N=c1nc(N)c(-c2cccc(Cl)c2Cl)nn1CCF [Example 52, 5(3)-Amino-6-(2,3-dichlorophenyl)-2,3(2,5)-dihydro-3(5)-imino-2-(2-fluoroethyl)-1,2,4-triazine methanesulfonate]
Hill (uptake of [14C]guanidine) (sodium channel; Table 8): 0.74

IC50 (sodium channel; [2]): 5.3 µM
SMILES: N=c1nc(N)c(-c2cccc(Cl)c2Cl)nn1Cc1cccc(C(F)(F)F)c1F [Example 26, 5(3)-Amino-6-(2,3-dichlorophenyl)-2,3(2,5)-dihydro-3(5)-imino-2-(2-fluoro-3-trifluoromethyl)phenylmethyl-1,2,4-triazine]

IC50 (sodium channel; [2]): 6.5 µM | [3H]methotrexate binding Inhibition (% @ assay conc'n) ([1]; assay concentration 10 μM): −4% | [3H]methotrexate binding Inhibition (% @ assay conc'n) ([1]; assay concentration 95 μM): −4%
SMILES: N=c1nc(N)c(-c2cccc(Cl)c2Cl)nn1Cc1ccc(Cl)cc1 [Example 21, 5(3)-Amino-6-(2,3-dichlorophenyl)-2,3(2,5)-dihydro-3(5)-imino-2-(4-chloro)phenylmethyl-1,2,4-triazine]

IC50 (sodium channel; [2]): > 300 µM | IC50 [1]: 442 ± 5.1 µM
SMILES: Nc1nnc(-c2cccc(F)c2F)c(N)n1 [Example 33, 6-(2,3-difluorophenyl)-1,2,4-triazine-3,5-diamine]

IC50 (sodium channel; [2]): 87.1 µM | inhibition at 495 µM [1, 4]: -1%
SMILES: Cn1nc(-c2ccc(Cl)cc2Cl)c(N)nc1=N [Example 45, 5(3)-Amino-6-(2,4-dichlorophenyl)-2,3(2,5)-dihydro-3(5)-imino-2-methyl-1,2,4-triazine methanesulfonate]

IC50 (sodium channel; [2]): > 500 µM | inhibition at 50 µM ([1]; read-out: [3H]methotrexate binding Inhibition (% @ assay conc'n), assay concentration 50 μM): 82%
SMILES: Nc1nnc(-c2ccccc2)c(N)n1 [Example 43, 3,5-Diamino-6-phenyl-1,2,4-triazine]

IC50 (sodium channel; [2]): 234 µM
SMILES: N=c1nc(N)c(-c2cccc(Cl)c2Cl)nn1Cc1ccc(C(N)=O)cc1 [Example 27, 4-{[5(3)-Amino-6-(2,3-dichlorophenyl)-2,3-dihydro-3(5)-imino-1,2,4-triazin-2-yl]methyl}benzamide or 5(3)-Amino-6-(2,3-dichlorophenyl)-2,3(2,5)-dihydro-3(5)-imino-2-(3-carboxamido)phenylmethyl-1,2,4-triazine]

IC50 (sodium channel; [2]): 5.1 µM | inhibition at 10 µM ([1]; read-out: [3H]methotrexate binding Inhibition (% @ assay conc'n), assay concentration 10 μM): -3% | inhibition at 99 µM [1, 5]: -3%
SMILES: N=c1nc(N)c(-c2cccc(Cl)c2Cl)nn1Cc1ccc(F)cc1 [Example 16, 5(3)-Amino-6-(2,3-dichlorophenyl)-2,3(2,5)-dihydro-3(5)-imino-2-(4-fluoro)phenylmethyl-1,2,4-triazine]

IC50 (sodium channel; [2]): 4.1 µM | inhibition at 20 µM [1, 4]: -2% | inhibition at 99 µM [1, 5]: -3%
SMILES: Cc1ccc(Cn2nc(-c3cccc(Cl)c3Cl)c(N)nc2=N)cc1 [Example 12, 5(3)-Amino-6-(2,3-dichlorophenyl)-2,3(2,5)-dihydro-3(5)-imino-2-(4-methyl)phenylmethyl-1,2,4-triazine]

IC50 (sodium channel; [2]): 6.2 µM
SMILES: N=c1nc(N)c(-c2cccc(Cl)c2Cl)nn1Cc1ccc(C(F)(F)F)cc1 [Example 25, 5(3)-Amino-6-(2,3-dichlorophenyl)-2,3(2,5)-dihydro-3(5)-imino-2-(4-trifluoromethyl)phenylmethyl-1,2,4-triazine]

IC50 (sodium channel; [2]): 490 µM | IC50 [1]: 81.3 µM
SMILES: Nc1nnc(-c2cccc(Cl)c2F)c(N)n1 [Example 35]

IC50 (sodium channel; [2]): 676 µM | inhibition at 495 µM [1, 4]: 1%
SMILES: CCn1nc(-c2ccccc2)c(N)nc1=N [Example 47, 5(3)-Amino-6-phenyl-2,3(2,5)-dihydro-3(5)-imino-2-ethyl-1,2,4-triazine methanesulfonate]

IC50 (sodium channel; [2]): 603 µM | IC50 [1]: 105 µM
SMILES: Nc1nnc(-c2ccc(Cl)cc2Cl)c(N)n1 [Example 44, 3,5-Diamino-6-(2,4-dichlorophenyl)-1,2,4-triazine]
